Assay results published in ChEMBL document CHEMBL3098089, “Probing the human estrogen receptor-α binding requirements for phenolic mono- and di-hydroxyl compounds: a combined synthesis, binding and docking study” (Bioorg Med Chem, 2014).

Assays:
[1] = target: T1, Estrogen receptor beta (Homo sapiens, UniProt Q92731)
[2] = target: T1, Estrogen receptor beta; remark: listed apart in the source
[3] = target: T2, Estrogen receptor (Homo sapiens, UniProt P03372)
T2 sequence (P03372 whole entry): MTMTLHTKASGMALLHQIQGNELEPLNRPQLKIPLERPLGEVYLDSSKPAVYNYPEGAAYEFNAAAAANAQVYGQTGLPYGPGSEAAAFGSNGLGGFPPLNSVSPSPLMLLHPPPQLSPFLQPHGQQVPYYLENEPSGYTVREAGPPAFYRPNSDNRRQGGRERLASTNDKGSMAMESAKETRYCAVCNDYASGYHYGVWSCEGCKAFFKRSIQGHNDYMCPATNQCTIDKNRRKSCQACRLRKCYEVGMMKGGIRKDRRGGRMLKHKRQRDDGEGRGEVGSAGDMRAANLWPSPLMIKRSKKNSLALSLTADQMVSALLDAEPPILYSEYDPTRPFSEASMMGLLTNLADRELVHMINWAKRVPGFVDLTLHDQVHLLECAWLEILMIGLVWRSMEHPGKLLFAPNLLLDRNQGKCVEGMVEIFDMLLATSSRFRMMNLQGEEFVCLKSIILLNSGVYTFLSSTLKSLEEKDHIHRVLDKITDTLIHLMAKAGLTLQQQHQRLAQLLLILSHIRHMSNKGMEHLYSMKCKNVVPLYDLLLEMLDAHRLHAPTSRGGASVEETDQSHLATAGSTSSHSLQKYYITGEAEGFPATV

[4] = target: T2, Estrogen receptor; remark: listed apart in the source

T1 sequence (Q92731 whole entry): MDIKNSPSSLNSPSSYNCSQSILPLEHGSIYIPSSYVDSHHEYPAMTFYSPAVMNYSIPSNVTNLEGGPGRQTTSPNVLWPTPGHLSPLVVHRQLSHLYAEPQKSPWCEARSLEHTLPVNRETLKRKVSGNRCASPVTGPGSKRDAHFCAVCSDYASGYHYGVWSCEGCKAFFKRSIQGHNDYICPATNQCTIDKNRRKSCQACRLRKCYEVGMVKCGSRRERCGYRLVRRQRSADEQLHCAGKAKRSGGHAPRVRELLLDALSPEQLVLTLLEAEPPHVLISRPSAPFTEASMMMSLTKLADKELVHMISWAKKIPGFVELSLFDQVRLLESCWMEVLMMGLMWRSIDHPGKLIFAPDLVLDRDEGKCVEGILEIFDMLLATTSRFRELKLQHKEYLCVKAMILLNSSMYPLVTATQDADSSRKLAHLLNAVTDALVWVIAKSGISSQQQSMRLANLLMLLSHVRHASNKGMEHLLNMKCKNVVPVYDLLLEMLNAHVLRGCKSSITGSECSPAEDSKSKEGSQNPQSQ

Structure (SMILES) | IC50 [1] [nM] | IC50 [2] [nM] | Kd [3] [nM] | IC50 [4] [nM]
C[C@]12CC[C@@H]3c4ccc(O)cc4CC[C@H]3[C@@H]1CC=C2CO | 6.8 | – | – | –
CC[C@H](C)C1=CC[C@H]2[C@@H]3CCc4cc(O)ccc4[C@H]3CC[C@]12C | 88 | 70 | 160 | –
CCCOC(=O)[C@H]1CC[C@H]2[C@@H]3CCc4cc(O)ccc4[C@H]3CC[C@]12C | – | – | 320 | 92
OC[C@H]1CCC[C@@H](c2ccc(O)cc2)CC1 (racemic) | – | – | > 1000 | –
C[C@@H](CCO)C1=CC[C@H]2[C@@H]3CCc4cc(O)ccc4[C@H]3CC[C@]12C | 108 | 275 | 320 | –
CC1C[C@H](C)C2(CC[C@H]3[C@@H]4CCc5cc(O)ccc5[C@H]4CC[C@@]32C)O1 (stereo partly drawn) | 111 | – | 160 | 484
